Laboratory results as given in patent US9920295B2, “Bioreactor for isolation of rare cells and methods of use” (The Trustees of the University of Pennsylvania, priority 2012, dated 2018).
Like-named read-outs stand apart in the source and are kept apart here. Values belong to the molecule of their own block, whether it stands above or below them.

What was measured:
CD34+-derived cells = experiment: Apoptosis by cleaved caspase-3 intracellular flow cytometry and Annexin-V; format: cell-based, human; settings: G-CSF 100 ng/ml; CH-223191 500 nM (4n fraction)
Procedure: (§1) Cells were fixed with 4% paraformaldehyde in PBS for 10 min, washed with PBS and resuspended in 0.1% saponin in HBSS (staining medium). The samples were then stained with antibodies against cytoplasmic antigens, including NMM-IIA (Sigma), NMM-IIB, phospho-NMM-IIA and caspase-3 (all from Cell Signaling Technology) for 30 min at room temperature. In some cases, cells were concurrently stained with PE anti-CD34 or anti-human CD38 for subpopulation analysis. Cells were then washed and stained with anti-rabbit or mouse secondary antibodies conjugated with Alexa 647 (Invitrogen) for 30 min, followed by analysis on FACSCalibur.

[1] = tested on: CD34+-derived cells (HSC, MPP, CPP); experiment: AHR antagonist dose-response on HSC/P subpopulation number; format: cell-based, human
Procedure: Freshly purified bone marrow-derived human CD34^+ cells were obtained from either the Penn Xenograft Core Facility or AllCells (Emeryville, Calif.). Cells from at least 20 different donors were used in this study. Purity of the samples (>98%) was confirmed by flow cytometry with monoclonal antibody against human CD34. All experiments were performed in HSC expansion media (StemLine, Sigma) supplemented with 1× antibiotics, 20% BIT 9500 Serum Substitute (StemCell Technologies), 2 mM […] (Gibco) and the following human recombinant cytokines: SCF (100 ng/ml) and Tpo (100 ng/ml). In some occasions, the media was also supplemented by G-CSF (100 ng/ml), epidermal growth factor (EGF, 100 ng/ml), transforming growth factor beta 1 (TGF-beta1, 100 ng/ml), erythropoietin (EPO, 1 U/ml) and interleukin-3 (IL-3, 10 ng/ml). All cytokines were purchased from R&D Systems. After cells were cultured for 4 days, they were treated with different doses of cellular contractility inhibitors, including (±)-Blebbistatin (Bleb) (EMD Biosciences) and/or CH-223191 (Sigma) for indicated durations of up to 3 days. Cells were cultured at 37° C. in 5% CO2.
Surface marker analysis for HSC/Ps was done on either a LSR II flow cytometer or FACSCalibur (Becton Dickinson). […] Cells isolated from the bone marrow stained for 1 hr with APC anti-mouse CD47 (miap301, AbD Serotec), FITC anti-human CD47 (BD Biosciences), and PE anti-human CD11b, PE anti-human CD19 (both from BD Biosciences), or PE anti-human Glycophorin A (Invitrogen). Plts and RBCs were analyzed by staining with PE anti-mouse CD41 (eBioscience) and FITC anti-human CD41 (eBioscience) for 20 min, followed by analysis on FACSCalibur on log forward and side scatter scales.

CD34+ cells = settings: data from Boitano et al. (2010), cited from earlier work; for EC50: fitted, read-out: CD34+ cell number EC50
NMM-IIA pS1943 = experiment: pS1943 of NMM-IIA by phospho-specific flow cytometry; format: cell-based, human; settings: under cytokine stimulation (SCF and Tpo)
Procedure: as §1

[2] = tested on: BM CD34+-derived cells (CD41+ MK); experiment: Ploidy analysis of CD34+-derived cells treated with contractility inhibitors (flow cytometry); format: cell-based, human; settings: for EC50: read-out: MK polyploid cell number EC50
Procedure: (§2) Fresh purified bone marrow (BM)-derived humanCD34^+ cells were obtained from either the Penn Xenograft Core Facility or AllCells. Cells from at least 10 different donors were used in this study. Purity of the samples (>98%) was confirmed by flow cytometry with monoclonal antibody against human CD34 conjugated to phycoerythrin (PE). All experiments were performed in hematopoietic stem cell (HSC) expansion media (StemLine-II; Sigma) supplemented with 1× antibiotics, and the following human recombinant cytokines SCF (100 ng/mL) and Tpo (100 ng/mL). In some occasions, the media was also supplemented by G-CSF (100 ng/mL). All cytokines were purchased from R&D Systems. After cells were cultured for 4 days, they were treated with different doses of cellular contractility inhibitors, including (±)-blebbistatin (EMDBiosciences), reversine, ML-7, and Y-27632 (Sigma) for indicated durations of up to 3 days. Unfortunately, longer exposure to drug proves toxic even to polyploidy cells under the present culture conditions. Cells were then resuspended in PBS/2% FBS medium and subjected to ploidy analysis: cells were stained with CD41-FITC (BD Biosciences) at room temperature for 30 min, followed by Hoechst 33342 at 37° C. for 30 min. Then cells were stained with Annexin-V-PE (BD Biosciences) in the Annexin-V staining medium, followed by addition of 7-AAD. Stained cells were subjected to flow cytometric analysis (LSR-II; BD Biosciences): only viable cells (7-AAD^− and Hoechst 33342^+) were analyzed for ploidy. Cells with the DNA content of 8 N or higher were considered polyploid. To quantify absolute number of polyploid cells, viable cell number was counted before flow cytometry by Trypan blue exclusion, and this number was multiplied by percentages of each DNA compartment and subpopulations. Each multiplied number was then normalized by initial cell input number before drug treatment in culture.

αIIbβ3 = molecular target: T1, αIIbβ3 (Homo sapiens, UniProt P05106+P08514); experiment: Platelet activation assay, PAC-1 binding; format: cell-based; settings: 10 μM, thrombin 1 U/mL
T1 construct: endogenous in cells; host or cells: platelet-like fragments from megakaryocytes cultured from human bone-marrow CD34+ cells
Procedure: For platelet-activation assays, platelet-sided fraction isolated from either MK culture or NSG blood was resuspended in Tyrode's buffer supplemented with Mg^2+ and Ca^2+, and incubated with indicated agonists for 15 min at 37° C., followed by staining with FITC-conjugated anti-human P-selectin or PAC-1 antibody (BD Bioscience), APC-conjugated anti-human CD41, and in the case of xenograft samples, PE-conjugated anti-mouse CD41 for 15 min at room temperature, followed by fixation with 1.5% paraformaldehyde. Antibody-stained samples were then analyzed by flow cytometry. Platelet number was evaluated by mixing each sample with a defined number (˜10,000 beads per sample) of APC-conjugated beads (BD Bioscience). The number of platelets per sample was evaluated by: number of CD41^+ events/number of APC-bead events multiplied by total known number of APC-bead added per sample.

CD34+-derived MKs = experiment: Polyploid MK numbers on collagen-coated gels of different elasticity; format: cell-based, human
Procedure: as §2, with “Cells were then resuspended in PBS/2% FBS medium and subjected to ploidy analysis: cells were stained with CD41-FITC (BD Biosciences) at room temperature for 30 min, followed by Hoechst 33342 at 37° C. for 30 min. Then cells were stained with Annexin-V-PE (BD Biosciences) in the Annexin-V staining medium, followed by addition of 7-AAD.” left out, “Cells with the DNA content of 8 N or higher were considered polyploid.” left out, “Each multiplied number was then normalized by initial cell input number before drug treatment in culture.” left out

[3] = Homo sapiens, dose-response, n≥3 donors

T1 sequence (P08514 32-887 limits assumed): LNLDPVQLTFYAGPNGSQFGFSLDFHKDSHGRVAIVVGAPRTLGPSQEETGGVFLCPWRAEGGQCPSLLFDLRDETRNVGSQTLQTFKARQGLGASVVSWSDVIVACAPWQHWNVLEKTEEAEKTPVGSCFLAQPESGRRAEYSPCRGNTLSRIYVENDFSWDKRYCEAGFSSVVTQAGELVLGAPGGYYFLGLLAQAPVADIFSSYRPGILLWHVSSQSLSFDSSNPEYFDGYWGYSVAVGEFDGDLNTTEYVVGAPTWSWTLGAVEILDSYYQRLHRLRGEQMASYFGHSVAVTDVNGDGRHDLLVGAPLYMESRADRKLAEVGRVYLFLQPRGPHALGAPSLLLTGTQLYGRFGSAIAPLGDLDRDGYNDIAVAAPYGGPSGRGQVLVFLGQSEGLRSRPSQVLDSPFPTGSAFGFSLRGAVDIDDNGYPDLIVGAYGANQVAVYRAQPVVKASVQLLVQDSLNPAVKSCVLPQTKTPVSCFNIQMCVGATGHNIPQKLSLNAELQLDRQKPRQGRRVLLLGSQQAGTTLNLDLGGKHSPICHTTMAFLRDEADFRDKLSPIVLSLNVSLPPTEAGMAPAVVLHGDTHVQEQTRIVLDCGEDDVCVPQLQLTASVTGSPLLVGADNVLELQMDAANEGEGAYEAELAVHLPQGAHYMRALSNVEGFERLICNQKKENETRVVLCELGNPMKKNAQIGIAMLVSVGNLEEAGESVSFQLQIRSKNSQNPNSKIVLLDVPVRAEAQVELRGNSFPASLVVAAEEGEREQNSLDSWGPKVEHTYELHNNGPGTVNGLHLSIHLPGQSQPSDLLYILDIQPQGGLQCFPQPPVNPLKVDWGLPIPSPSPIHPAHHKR
T1 sequence (P08514 891-1039 partner limits assumed): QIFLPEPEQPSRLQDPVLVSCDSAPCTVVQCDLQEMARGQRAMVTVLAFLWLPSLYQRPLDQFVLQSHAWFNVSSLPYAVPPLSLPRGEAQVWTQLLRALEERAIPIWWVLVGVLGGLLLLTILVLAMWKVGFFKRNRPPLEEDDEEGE
T1 sequence (P05106 27-788): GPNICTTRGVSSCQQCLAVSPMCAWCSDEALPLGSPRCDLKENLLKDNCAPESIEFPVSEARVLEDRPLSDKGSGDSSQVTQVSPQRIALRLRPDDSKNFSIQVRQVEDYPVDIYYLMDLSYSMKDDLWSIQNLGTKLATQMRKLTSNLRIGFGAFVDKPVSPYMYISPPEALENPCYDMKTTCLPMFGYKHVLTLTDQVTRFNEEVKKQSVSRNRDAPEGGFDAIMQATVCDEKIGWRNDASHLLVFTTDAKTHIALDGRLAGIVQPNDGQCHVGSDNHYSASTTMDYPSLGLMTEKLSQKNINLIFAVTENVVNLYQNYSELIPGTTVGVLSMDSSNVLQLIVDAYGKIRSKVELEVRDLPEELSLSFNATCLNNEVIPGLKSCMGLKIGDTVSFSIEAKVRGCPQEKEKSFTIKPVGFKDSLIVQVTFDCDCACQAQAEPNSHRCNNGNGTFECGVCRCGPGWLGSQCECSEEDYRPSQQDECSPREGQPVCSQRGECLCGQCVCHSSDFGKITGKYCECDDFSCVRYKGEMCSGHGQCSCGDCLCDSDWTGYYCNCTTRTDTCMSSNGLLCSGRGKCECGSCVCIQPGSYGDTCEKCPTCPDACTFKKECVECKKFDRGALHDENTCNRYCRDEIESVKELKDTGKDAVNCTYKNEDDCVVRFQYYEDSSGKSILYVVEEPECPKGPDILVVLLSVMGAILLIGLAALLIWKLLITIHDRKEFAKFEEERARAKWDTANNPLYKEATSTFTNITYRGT

EC50 ([1]; untreated and Bleb, for both, read-out: CPP number EC50): 750 nM
EC50 ([1]; untreated and Bleb, for both, read-out: MPP number EC50): 114 nM
EC50 ([1]; with 20 μM Bleb, 3 days, read-out: HSC number EC50): 211 nM
EC50 ([1]; without Bleb, 3 days, read-out: HSC number EC50): 158 nM
Molecule: Cc1ccccc1N=Nc1ccc(NC(=O)c2ccnn2C)c(C)c1 [CH-223191]
viability of untreated CD34+ and CD34− cells (CD34+-derived cells): improves the viability
HSC/P ratio ([1]; dual drug treatment with Bleb): almost doubled
EC50 (CD34+ cells): 74 nM

Molecule: EGF: epidermal growth factor, human recombinant cytokine (NSDSECPLSHDGYCLHDGVCMYIEALDKYACNCVVGYIGERCQYRDLKWWELR; UniProt P01133 971-1023, looked up)
effect on pS1943 level (NMM-IIA pS1943): does not show a significant effect

Molecule: TGF-beta 1: transforming growth factor beta 1, human recombinant cytokine
effect on pS1943 level (NMM-IIA pS1943): inhibits the reduction of pS1943 level

Molecule: O=c1cc(-c2ccccc2)oc2c1ccc1ccccc12 [a-napthoflavone, α-napthoflavone]
EC50 (CD34+ cells): 177 nM
concentration showing toxic effect (CD34+ cells): ≥ 1000 nM

Molecule: CC(C)n1cnc2c(NCCc3ccc(O)cc3)nc(-c3csc4ccccc34)nc21 [SR1]
EC50 (CD34+ cells): 47.4 nM

IC50 ([2]; 2 N, read-out: MK cell number in 2 N IC50): 500 nM
IC50 ([2]; 4 N, read-out: MK cell number in 4 N IC50): 500 nM
IC50 ([2]; dose-response, n≥3 donors, read-out: MK polyploid cell number IC50): 1040 nM
Molecule: O=S(=O)(c1cccc2c(I)cccc12)N1CCCNCC1 [ML7, ML-7]

EC50 [2, 3]: 140 nM
Molecule: C[C@@H](N)[C@H]1CC[C@H](C(=O)Nc2ccncc2)CC1 [Y-27632]

inhibition of agonist-induced PAC-1 binding (αIIbβ3): inhibits as expected
Molecule: CCCCS(=O)(=O)N[C@@H](Cc1ccc(OCCCCC2CCNCC2)cc1)C(=O)O [Tirofiban]

EC50 [2, 3]: 500 nM
IC50 ([2]; Homo sapiens, read-out: MK cell number in 2 N IC50): 260 nM
IC50 ([2]; Homo sapiens, read-out: MK cell number in 4 N IC50): 500 nM
Molecule: c1nc2nc(Nc3ccc(N4CCOCC4)cc3)nc(NC3CCCCC3)c2[nH]1 [reversine]

polyploid MK numbers on stiff gels, IC50 in collagen concentration (CD34+-derived MKs; blebbistatin-treated cells): ~0.3 ng/cm^2
polyploid MK numbers on stiff gels, EC50 in collagen concentration (CD34+-derived MKs; untreated cells): ~200 ng/cm^2
Molecule: collagen
